Experimental data: publication PMC9481151, “Discovery of new symmetrical and asymmetrical nitrile-containing 1,4-dihydropyridine derivatives as dual kinases and P-glycoprotein inhibitors: synthesis, in vitro assays, and in silico studies” (Journal of Enzyme Inhibition and Medicinal Chemistry, 2022)

Columns and labels:
TK-10 = experiment: NCI single dose (10 µM) SRB screen; type: cell-based, human; conditions: renal cancer, 48 h
HOP-62 = experiment: NCI single dose (10 µM) SRB screen; type: cell-based, human; conditions: non-small cell lung cancer, 48 h
OVCAR-5 = experiment: NCI single dose (10 µM) SRB screen; type: cell-based, human; conditions: ovarian cancer, 48 h
A498 = experiment: NCI single dose (10 µM) SRB screen; type: cell-based, human; conditions: renal cancer, 48 h
PC-3 = experiment: NCI single dose (10 µM) SRB screen; type: cell-based, human; conditions: prostate cancer, 48 h
CCRF-CEM = experiment: NCI single dose (10 µM) SRB screen; type: cell-based, human; conditions: leukaemia, 48 h
COLO 205 = experiment: NCI single dose (10 µM) SRB screen; type: cell-based, human; conditions: colon cancer, 48 h
K-562 = experiment: NCI single dose (10 µM) SRB screen; type: cell-based, human; conditions: leukaemia, 48 h
SF-539 = experiment: NCI single dose (10 µM) SRB screen; type: cell-based, human; conditions: CNS cancer, 48 h
SW-620 = experiment: NCI single dose (10 µM) SRB screen; type: cell-based, human; conditions: colon cancer, 48 h
HT29 = experiment: NCI single dose (10 µM) SRB screen; type: cell-based, human; conditions: colon cancer, 48 h
Escherichia coli = experiment: Agar well diffusion method; conditions: relative to ciprofloxacin
KM12 = experiment: NCI single dose (10 µM) SRB screen; type: cell-based, human; conditions: colon cancer, 48 h
Aspergillus flavus = experiment: Agar well diffusion method; conditions: relative to clotrimazole
NCI-H522 = experiment: NCI single dose (10 µM) SRB screen; type: cell-based, human; conditions: non-small cell lung cancer, 48 h
Staphylococcus aureus = experiment: Agar well diffusion method; conditions: relative to ciprofloxacin
SK-MEL-28 = experiment: NCI single dose (10 µM) SRB screen; type: cell-based, human; conditions: melanoma, 48 h
Candida albicans = experiment: Agar well diffusion method; conditions: relative to clotrimazole
MDA-MB-231 = experiment: NCI single dose (10 µM) SRB screen; type: cell-based, human; conditions: breast cancer, 48 h
SK-MEL-5 = experiment: NCI single dose (10 µM) SRB screen; type: cell-based, human; conditions: melanoma, 48 h
DU-145 = experiment: NCI single dose (10 µM) SRB screen; type: cell-based, human; conditions: prostate cancer, 48 h
Pseudomonas aeruginosa = experiment: Agar well diffusion method; conditions: relative to ciprofloxacin
HCC-2998 = experiment: NCI single dose (10 µM) SRB screen; type: cell-based, human; conditions: colon cancer, 48 h
NCI 60 cancer cell lines = experiment: NCI single dose (10 µM) SRB screen, mean over panel; type: cell-based, human; conditions: mean over 60 cell lines, 48 h
NCI-H460 = experiment: NCI single dose (10 µM) SRB screen; type: cell-based, human; conditions: non-small cell lung cancer, 48 h
SK-OV-3 = experiment: NCI single dose (10 µM) SRB screen; type: cell-based, human; conditions: ovarian cancer, 48 h
NCI-H226 = experiment: NCI single dose (10 µM) SRB screen; type: cell-based, human; conditions: non-small cell lung cancer, 48 h
A549/ATCC = experiment: NCI single dose (10 µM) SRB screen; type: cell-based, human; conditions: non-small cell lung cancer, 48 h
MOLT-4 = experiment: NCI single dose (10 µM) SRB screen; type: cell-based, human; conditions: leukaemia, 48 h
UACC-257 = experiment: NCI single dose (10 µM) SRB screen; type: cell-based, human; conditions: melanoma, 48 h
OVCAR-8 = experiment: NCI single dose (10 µM) SRB screen; type: cell-based, human; conditions: ovarian cancer, 48 h
RXF 393 = experiment: NCI single dose (10 µM) SRB screen; type: cell-based, human; conditions: renal cancer, 48 h
M14 = experiment: NCI single dose (10 µM) SRB screen; type: cell-based, human; conditions: melanoma, 48 h
EKVX = experiment: NCI single dose (10 µM) SRB screen; type: cell-based, human; conditions: non-small cell lung cancer, 48 h
HCT-116 = experiment: NCI single dose (10 µM) SRB screen; type: cell-based, human; conditions: colon cancer, 48 h
SN12C = experiment: NCI single dose (10 µM) SRB screen; type: cell-based, human; conditions: renal cancer, 48 h
SK-MEL-2 = experiment: NCI single dose (10 µM) SRB screen; type: cell-based, human; conditions: melanoma, 48 h
RPMI-8226 = experiment: NCI single dose (10 µM) SRB screen; type: cell-based, human; conditions: leukaemia, 48 h
NCI-H322M = experiment: NCI single dose (10 µM) SRB screen; type: cell-based; conditions: non-small cell lung cancer, 48 h
SF-295 = experiment: NCI single dose (10 µM) SRB screen; type: cell-based, human; conditions: CNS cancer, 48 h
UACC-62 = experiment: NCI single dose (10 µM) SRB screen; type: cell-based, human; conditions: melanoma, 48 h
IGROV1 = experiment: NCI single dose (10 µM) SRB screen; type: cell-based, human; conditions: ovarian cancer, 48 h
T-47D = experiment: NCI single dose (10 µM) SRB screen; type: cell-based, human; conditions: breast cancer, 48 h
MDA-MB-435 = experiment: NCI single dose (10 µM) SRB screen; type: cell-based, human; conditions: melanoma, 48 h
HOP-92 = experiment: NCI single dose (10 µM) SRB screen; type: cell-based, human; conditions: non-small cell lung cancer, 48 h
CAKI-1 = experiment: NCI single dose (10 µM) SRB screen; type: cell-based, human; conditions: renal cancer, 48 h
NCI/ADR-RES = experiment: NCI single dose (10 µM) SRB screen; type: cell-based, human; conditions: ovarian cancer, 48 h
HCT-15 = experiment: NCI single dose (10 µM) SRB screen; type: cell-based, human; conditions: colon cancer, 48 h
SNB-75 = experiment: NCI single dose (10 µM) SRB screen; type: cell-based, human; conditions: CNS cancer, 48 h
ACHN = experiment: NCI single dose (10 µM) SRB screen; type: cell-based, human; conditions: renal cancer, 48 h
OVCAR-3 = experiment: NCI single dose (10 µM) SRB screen; type: cell-based, human; conditions: ovarian cancer, 48 h
Bacillus subtilis = experiment: Agar well diffusion method; conditions: relative to ciprofloxacin
SR = experiment: NCI single dose (10 µM) SRB screen; type: cell-based, human; conditions: leukaemia, 48 h
UO-31 = experiment: NCI single dose (10 µM) SRB screen; type: cell-based, human; conditions: renal cancer, 48 h
786-0 = experiment: NCI single dose (10 µM) SRB screen; type: cell-based, human; conditions: renal cancer, 48 h
MCF7 = experiment: NCI single dose (10 µM) SRB screen; type: cell-based, human; conditions: breast cancer, 48 h
LOX IMVI = experiment: NCI single dose (10 µM) SRB screen; type: cell-based, human; conditions: melanoma, 48 h
SNB-19 = experiment: NCI single dose (10 µM) SRB screen; type: cell-based, human; conditions: CNS cancer, 48 h
HL-60(TB) = experiment: NCI single dose (10 µM) SRB screen; type: cell-based, human; conditions: leukaemia, 48 h
MDA-MB-468 = experiment: NCI single dose (10 µM) SRB screen; type: cell-based, human; conditions: breast cancer, 48 h
HS578T = experiment: NCI single dose (10 µM) SRB screen; type: cell-based, human; conditions: breast cancer, 48 h
SF-268 = experiment: NCI single dose (10 µM) SRB screen; type: cell-based, human; conditions: CNS cancer, 48 h
OVCAR-4 = experiment: NCI single dose (10 µM) SRB screen; type: cell-based, human; conditions: ovarian cancer, 48 h
U251 = experiment: NCI single dose (10 µM) SRB screen; type: cell-based, human; conditions: CNS cancer, 48 h
MALME-3M = experiment: NCI single dose (10 µM) SRB screen; type: cell-based, human; conditions: melanoma, 48 h
NCI-H23 = experiment: NCI single dose (10 µM) SRB screen; type: cell-based, human; conditions: non-small cell lung cancer, 48 h
BT-549 = experiment: NCI single dose (10 µM) SRB screen; type: cell-based, human; conditions: breast cancer, 48 h

CCOC(=O)C1=C(C)NC(C)=C(C(=O)OCC(C)C)C1c1cccc(C#N)c1 (racemic) [Compound 2i, (±)-3-Ethyl 5-isobutyl 4-(3-cyanophenyl)-2,6-dimethyl-1,4-dihydropyridine-3,5-dicarboxylate]
GI% TK-10 (TK-10): – (Only GI% ≥ 10 are shown) | GI% HOP-62 (HOP-62): – (Only GI% ≥ 10 are shown) | GI% OVCAR-5 (OVCAR-5): – (Only GI% ≥ 10 are shown) | GI% A498 (A498): – (Only GI% ≥ 10 are shown) | GI% PC-3 (PC-3): 29% | GI% CCRF-CEM (CCRF-CEM): – (Only GI% ≥ 10 are shown) | GI% COLO 205 (COLO 205): – (Only GI% ≥ 10 are shown) | GI% K-562 (K-562): 24% | GI% SF-539 (SF-539): – (Only GI% ≥ 10 are shown) | GI% SW-620 (SW-620): – (Only GI% ≥ 10 are shown) | GI% HT29 (HT29): – (Only GI% ≥ 10 are shown) | % activity index, E. coli (Escherichia coli): – (Values below 25 are of limited value and not shown as they refer either to inactive or non-diffusing compounds) | GI% KM12 (KM12): – (Only GI% ≥ 10 are shown) | % activity index, A. flavus (Aspergillus flavus): – (Values below 25 are of limited value and not shown as they refer either to inactive or non-diffusing compounds) | GI% NCI-H522 (NCI-H522): 13% | melting point: 120 to 121 °C | % activity index, S. aureus (Staphylococcus aureus): – (Values below 25 are of limited value and not shown as they refer either to inactive or non-diffusing compounds) | GI% SK-MEL-28 (SK-MEL-28): – (Only GI% ≥ 10 are shown) | % activity index, C. albicans (Candida albicans): – (Values below 25 are of limited value and not shown as they refer either to inactive or non-diffusing compounds) | GI% MDA-MB-231 (MDA-MB-231): – (Only GI% ≥ 10 are shown) | GI% SK-MEL-5 (SK-MEL-5): 12% | GI% DU-145 (DU-145): – (Only GI% ≥ 10 are shown) | % activity index, P. aeruginosa (Pseudomonas aeruginosa): – (Values below 25 are of limited value and not shown as they refer either to inactive or non-diffusing compounds) | GI% HCC-2998 (HCC-2998): – (Only GI% ≥ 10 are shown) | Mean GI% (NCI 60 cancer cell lines): 9% | GI% NCI-H460 (NCI-H460): – (Only GI% ≥ 10 are shown) | GI% SK-OV-3 (SK-OV-3): – (Only GI% ≥ 10 are shown) | GI% NCI-H226 (NCI-H226): 22% | GI% A549/ATCC (A549/ATCC): 10% | GI% MOLT-4 (MOLT-4): 21% | GI% UACC-257 (UACC-257): – (Only GI% ≥ 10 are shown) | GI% OVCAR-8 (OVCAR-8): – (Only GI% ≥ 10 are shown) | GI% RXF 393 (RXF 393): 30% | GI% M14 (M14): – (Only GI% ≥ 10 are shown) | GI% EKVX (EKVX): 29% | GI% HCT-116 (HCT-116): 23% | GI% SN12C (SN12C): – (Only GI% ≥ 10 are shown) | GI% SK-MEL-2 (SK-MEL-2): – (Only GI% ≥ 10 are shown) | GI% RPMI-8226 (RPMI-8226): – (Only GI% ≥ 10 are shown) | GI% NCI-H322M (NCI-H322M): – (Only GI% ≥ 10 are shown) | GI% SF-295 (SF-295): 31% | GI% UACC-62 (UACC-62): 27% | GI% IGROV1 (IGROV1): – (Only GI% ≥ 10 are shown) | GI% T-47D (T-47D): 32% | GI% MDA-MB-435 (MDA-MB-435): – (Only GI% ≥ 10 are shown) | GI% HOP-92 (HOP-92): 18% | GI% CAKI-1 (CAKI-1): 35% | GI% NCI/ADR-RES (NCI/ADR-RES): 22% | GI% HCT-15 (HCT-15): 30% | GI% SNB-75 (SNB-75): 18% | GI% ACHN (ACHN): – (Only GI% ≥ 10 are shown) | GI% OVCAR-3 (OVCAR-3): – (Only GI% ≥ 10 are shown) | % activity index, B. subtilis (Bacillus subtilis): – (Values below 25 are of limited value and not shown as they refer either to inactive or non-diffusing compounds) | GI% SR (SR): 23% | GI% UO-31 (UO-31): – (Only GI% ≥ 10 are shown) | GI% 786-0 (786-0): 11% | GI% MCF7 (MCF7): 34% | GI% LOX IMVI (LOX IMVI): 20% | GI% SNB-19 (SNB-19): – (Only GI% ≥ 10 are shown) | GI% HL-60(TB) (HL-60(TB)): – (Only GI% ≥ 10 are shown) | GI% MDA-MB-468 (MDA-MB-468): 24% | GI% HS578T (HS578T): 13% | GI% SF-268 (SF-268): – (Only GI% ≥ 10 are shown) | GI% OVCAR-4 (OVCAR-4): 12% | GI% U251 (U251): – (Only GI% ≥ 10 are shown) | GI% MALME-3M (MALME-3M): – (Only GI% ≥ 10 are shown) | GI% NCI-H23 (NCI-H23): 24% | GI% BT-549 (BT-549): – (Only GI% ≥ 10 are shown)
